Data reported in article PMC11513892, “Discovery of a Series of Macrocycles as Potent Inhibitors of Leishmania Infantum” (Journal of Medicinal Chemistry, 2024).
Read-outs that look alike come from different tables or passages of the source.

Assays:
MDR1 = experiment: in vitro; type: in vitro ADME, canine; details: dog; for Papp B→A: MDCK-MDR1, pH 7.4; for Papp A→B: MDCK-MDR1, pH 7.4, Papp AB
Description: (§1) The potency of macrocycles 1–12 to inhibit the growth of L. infantum was determined in a phenotypic assay in which the parasite was grown in primary peritoneal mouse macrophages (PMMs). To understand whether the SAR for inhibition of parasitic growth is impacted by low cell permeability, the permeability of compounds 1–12 was determined separately. Madin-Darby canine kidney (MDCK) cells transfected with the human MDR1 (multidrug resistance 1) gene (MDCK-MDR1 cells) were used to determine permeabilities in the apical to basolateral direction (Papp AB) as well as efflux ratios (ERs). […] Lipophilicity (Log D at pH 7.4), aqueous kinetic solubility and mouse liver microsomal metabolism were also determined for 1–12, and are discussed separately (cf. physiochemical properties and ADMET, below).
(§2) The kinetic solubility in phosphate buffered saline at pH 7.4, chromatographic Log D at pH 7.4, cell permeability across a MDCK-MDR1 cell monolayer at pH 7.4, and the clearance in mouse liver microsomes of 1–12 was determined at TCG Lifesciences.

[1] = Chromatographic Log D at pH 7.4; type: physicochemical; details: 1-octanol/PBS pH 7.4, determined by chromatography, mean of two measurements
Description: as §2

L. infantum = experiment: Growth of L. infantum in infected primary mouse macrophages (PMMs), phenotypic assay; type: cell-based, Leishmania infantum; details: for EC50: Leishmania infantum, Macrophage; for loss in potency compared to 3, L. infantum: relative to compound 3
Excerpt: (§3) We previously reported the synthesis of a series of macrocycles, including 1 (Figure 2A), designed to investigate how structural features influence molecular chameleonicity.[15],[21] Originating from the structural similarities between 1 and hymenocardine, we investigated 1 in screens for P. falciparum and four kinetoplastid parasites: T. b. brucei, T. b. rhodesiense, T. cruzi, and L. infantum. In the screens, we also included compounds 2 and 3 (Figure 2A), which were obtained from an intermediate late in the synthetic route to 1. Since very few validated protein targets relevant to clearance of parasites are known, phenotypic assays were used to investigate the antiparasitic activity for all five parasites. For malaria, the P. falciparum blood stage 3D7 strain was used to test the three compounds. For the two Trypanosoma brucei species, the reduction in trypomastigote growth in culture medium was determined after the addition of 1–3. For T. cruzi, the intracellular parasite growth in infected human fibroblasts (MRC-5 cell line) was assessed in the presence and absence of the three inhibitors. Similarly, the growth of L. infantum was assessed in infected primary mouse macrophages (PMMs) in the presence and absence of the inhibitors. […] The assays for T. cruzi and L. infantum are complex, i.e., they determine the degree of inhibition of parasitic replication in a mammalian cell line; this complexity may lead to a high variability for some compounds.
as §1
(§4) The growth of the P. falciparum blood stage 3D7 strain,[53] the two T. brucei species in axenic cultures,[54]T. cruzi in infected human fibroblasts (MRC-5 cell line),[55] and of L. infantum in infected primary mouse macrophages (PMMs)[56] was determined as previously reported in the presence and absence of inhibitors 1–12.

T. b. rhodesiense = experiment: Growth of T. b. rhodesiense trypomastigotes in axenic culture; type: cell-based, Trypanosoma brucei rhodesiense; details: Trypanosoma brucei
Excerpt: as §3, §4

MRC-5 cells = experiment: Host cell cytotoxicity in MRC-5 cells; type: cell-based, human; details: CSV supplement; decimal comma
T. b. brucei = experiment: Growth of T. b. brucei trypomastigotes in axenic culture; type: cell-based; details: Trypanosoma brucei
Excerpt: as §3, §4

[2] = Clearance in human microsomes; type: in vitro ADME; details: CSV supplement; for microsomal CLint: human, microsomes, read-out: CLint in vitro Human Microsomes
Excerpt: Supplement jm4c01370_si_002.csv, table | column: CLint in vitro Human Microsomes µL/min/mg; t(1/2) min

T. cruzi = experiment: Intracellular growth of T. cruzi in infected human fibroblasts (MRC-5 cell line); type: cell-based; details: Trypanosoma cruzi
Excerpt: as §3, §4

[3] = test system: primary mouse macrophages (PMMs); experiment: Host cell cytotoxicity in primary mouse macrophages (PMM); type: cell-based; details: CSV supplement; decimal comma
[4] = Clearance in mouse liver microsomes; type: in vitro ADME; details: for microsomal CLint: mouse, liver microsomes
Description: as §2

[5] = Kinetic solubility in phosphate buffered saline at pH 7.4; type: physicochemical
Description: as §2

[6] = Table 1, mean (standard deviation, number of measurements), read-out: EC50 (μM), inhibition of the growth of L. infantum
[7] = RHODESIENSE / STIB900, CSV supplement, decimal comma, read-out: EC50 T.b. rhodesiense STIB 900
[8] = CSV supplement, decimal comma, read-out: EC50 T.b. brucei Squib 427
[9] = Table S1, mean (SD), 2 to 14 measurements, unit not given in Table S1, read-out: In vitro potency, T. b. brucei
[10] = MRC5, Table S1, mean (SD), 2 to 14 measurements, unit not given in Table S1, read-out: In vitro potency, T. cruzi
[11] = TULAHUEN, MRC5, read-out: EC50 T. cruzi Tulahuen C4 (LacZ)
[12] = CSV supplement, read-out: CLint in vitro Mouse Microsomes
[13] = incubation with mouse liver microsomes, read-out: CLint
[14] = phosphate buffered saline, pH 7.4, CSV supplement, read-out: Kinetic solubility
[15] = phosphate buffered saline, pH 7.4, phosphate buffered saline pH 7.4, assay range 2.5–200 μM, read-out: solubility (kinetic)
[16] = MDCK-MDR1, pH 7.4, ER, efflux ratio (BA/AB)
[17] = MDCK-MDR1, pH 7.4, MDCK MDR1 - pH 7.4 Efflux Ratio
[18] = CSV supplement, decimal comma, read-out: EC50 L. infantum MHOM/MA(BE)/67
[19] = RHODESIENSE, Table S1, mean (SD), 2 to 14 measurements, unit not given in Table S1, read-out: In vitro potency, T. b. rhodesiense

Compound | Papp B→A (MDR1) | chromatographic logD [1] | EC50 (L. infantum; [6]) | EC50 (T. b. rhodesiense; [7]) | MRC-5 cells Human Lung Fibroblast Cells (cytotoxicity) (MRC-5 cells) | EC50 (T. b. brucei; [8]) | EC50 (T. b. brucei; [9]) | EC50 (T. cruzi; [10]) | EC50 (T. cruzi; [11]) | PMM Primary Mouse Macrophages (inf-LMPH) (cytotoxicity) [3] | t(1/2), Mouse Microsomes ([4]; CSV supplement) | microsomal CLint [4, 12] | microsomal CLint [4, 13] | solubility kinetic [5, 14] | solubility kinetic [5, 15] | efflux ratio (MDR1; [16]) | efflux ratio (MDR1; [17]) | Papp A→B (MDR1) | EC50 (L. infantum; [18]) | loss in potency compared to 3, L. infantum (L. infantum) | other results
COc1ccc(C[C@H](NC(=O)OC(C)(C)C)C(=O)N[C@@H](Cc2ccccc2)C(=O)NCC(=O)c2cccc(NC(=O)c3ccccn3)c2)cc1 [Compound 4, tert-Butyl ((S)-3-(4-Methoxyphenyl)-1-oxo-1-(((S)-1-oxo-1-((2-oxo-2-(3-(picolinamido)phenyl)ethyl)amino)-3-phenylpropan-2-yl)amino)propan-2-yl)carbamate] | 2.4 ×10⁻⁶ cm/s | 4.7 | 38 µM | 6.1 µM | >64 µM | 32.7 µM | 33 µM | 64 µM | > 64 µM | >64 µM | <3 min | > 578 µL/min/mg | > 580 µL/min/mg | 4.9 µg/mL | 7.3 µM | – | – | – | – | – | activity in the L. infantum phenotypic screen (in words) (L. infantum; Table 1): inactive; t(1/2), Human Microsomes [2]: <3 min; microsomal CLint [2]: > 578 µL/min/mg
CC(C)(C)OC(=O)N[C@H]1CCc2ccc(cc2)Oc2ccc(cc2NC(=O)c2ccccn2)C(=O)CNC(=O)[C@H](Cc2ccccc2)NC1=O [Compound 5, tert-Butyl ((8S,11S)-8-Benzyl-4,7,10-trioxo-3^2-(picolinamido)-2-oxa-6,9-diaza-1,3(1,4)-dibenzenacyclotridecaphane-11-yl)carbamate] | 17.3 ×10⁻⁶ cm/s | 4.8 | 17 µM | 5.6 µM | >64 µM | 7.4 µM | – | – | 18 µM | >64 µM | <3 min | > 578 µL/min/mg | > 580 µL/min/mg | 1.8 µg/mL | 2.7 µM | 13 | 13.2 | 1.3 ×10⁻⁶ cm/s | 16.6 µM | ~10 fold | t(1/2), Human Microsomes [2]: <3 min; microsomal CLint [2]: > 578 µL/min/mg
C[C@@H]1NC(=O)[C@@H](NC(=O)OC(C)(C)C)Cc2ccc(cc2)Oc2ccc(cc2NC(=O)c2ccccn2)C(=O)CNC1=O [Compound 7, tert-Butyl ((8S,11S)-8-Methyl-4,7,10-trioxo-3^2-(picolinamido)-2-oxa-6,9-diaza-1,3(1,4)-dibenzenacyclododecaphane-11-yl)carbamate] | 39.3 ×10⁻⁶ cm/s | 3.5 | 16 µM | 9.7 µM | >64 µM | 49 µM | – | 36 µM | 35.5 µM | >64 µM | 5,8 min | 297 µL/min/mg | 300 µL/min/mg | 73.7 µg/mL | > 100 µM | 28 | 28.3 | 1.4 ×10⁻⁶ cm/s | 15.5 µM | ~10 fold | solubility kinetic ([5]; phosphate buffered saline pH 7.4, assay range 2.5–200 μM, read-out: solubility (kinetic)): 126 µM
CC(C)(C)OC(=O)N[C@H]1Cc2ccc(cc2)Oc2ccc(cc2NC(=O)c2ccccn2)C(=O)CNC(=O)[C@@H](Cc2ccccc2)NC1=O [Compound 8, tert-Butyl ((8R,11S)-8-Benzyl-4,7,10-trioxo-3^2-(picolinamido)-2-oxa-6,9-diaza-1,3(1,4)-dibenzenacyclododecaphane-11-yl)carbamate] | 22.3 ×10⁻⁶ cm/s | 4.8 | 8.2 µM | 6.4 µM | >64 µM | 8.1 µM | – | – | 6.1 µM | >64 µM | <3 min | > 578 µL/min/mg | > 580 µL/min/mg | 1.9 µg/mL | 2.9 µM | 7.6 | 7.6 | 2.9 ×10⁻⁶ cm/s | – | – | –
CC(=O)N[C@H]1Cc2ccc(cc2)Oc2ccc(cc2NC(=O)c2ccccn2)C(=O)CNC(=O)[C@H](Cc2ccccc2)NC1=O [Compound 11] | 17.8 ×10⁻⁶ cm/s | 3.2 | 38 µM | 23.6 µM | >64 µM | 26.8 µM | 36 µM | – | 33 µM | >64 µM | 12,9 min | 134 µL/min/mg | 130 µL/min/mg | 58.3 µg/mL | 96 µM | – | – | 1.1 ×10⁻⁶ cm/s | 37.5 µM | > 20 fold | efflux ratio (MDR1; MDCK-MDR1, pH 7.4, CSV supplement, pH 7.4, read-out: MDCK MDR1 - pH 7.4 Efflux Ratio): 15.7; efflux ratio (MDR1; MDCK-MDR1, pH 7.4, MDCK-MDR1 cell monolayer, read-out: ER, efflux ratio (BA/AB)): 16; EC50 (T. b. rhodesiense; [19]): 24 µM
CC(C)(C)C(=O)N[C@H]1Cc2ccc(cc2)Oc2ccc(cc2NC(=O)c2ccccn2)C(=O)CNC(=O)[C@H](Cc2ccccc2)NC1=O [Compound 12, tert-Butyl ((8S,11S)-8-Benzyl-4,7,10-trioxo-11-pivalamido-2-oxa-6,9-diaza-1,3(1,4)-dibenzenacyclododecaphane-3^2-yl)picolinamide] | 31.8 ×10⁻⁶ cm/s | 4.4 | 7.1 µM | 21.3 µM | >64 µM | 30.4 µM | 30 µM | 64 µM | > 64 µM | >64 µM | <3 min | > 578 µL/min/mg | > 580 µL/min/mg | 10.3 µg/mL | 16 µM | 21 | 20.8 | 1.5 ×10⁻⁶ cm/s | – | – | EC50 (T. b. rhodesiense; [19]): 21 µM
CCCCCCCCCCCCCCCCOP(=O)([O-])OCC[N+](C)(C)C [Miltefosine, miltefosine, reference compound] | – | – | 6.1 µM | – | – | – | – | – | – | – | – | – | – | – | – | – | – | – | – | – | –
